# Data published in PMC10609940, “Systemic Dendrimer-Peptide Therapies for Wet Age-Related Macular Degeneration” (Pharmaceutics, 2023).
# Where a SMILES comes first, the peptide text is derived from it. [ ]: non-standard residue; d: D form. Cya = N[C@@H](CS(=O)(=O)O)C(=O)O
# Tests used:
# HUVEC cells [1] = assay: In vitro vessel (tube) formation assay on Matrigel; format: cell-based, human
# Method: First, 96-well plates were coated with 75 µL of Matrigel and left at room temperature for 15 min before being placed into 37 °C incubators for an additional 30 min. Then, D-ALG1001 was dissolved at twice the desired concentration and 50 µL of the drug solution was added to the wells. HUVEC cells were then added to each well at a density of 70,000 cells/cm^2. Live-cell images were taken at 12 h for analysis.
# To compare the dose–response efficacy of free and D-ALG in a physiologically relevant model, we utilized an in vitro model of blood vessel formation. HUVEC cells were treated with a gradient concentration of D-ALG and ALG-1001 for 24 h at three different magnitudes of doses. The cells were then seeded on Matrigel after which cells naturally migrate to form blood vessel-like tubule structures. The images were analyzed with the Angiogenesis Analyzer plug-in on ImageJ to extract relevant metrics that measure the connectivity and integrity of tube networks (Figure 3A and Figure S8).
# Figure 3 In vitro inhibition of vessel formation. (A) Image analysis of HUVECs seeded onto a Matrigel matrix using the Angiogenesis Analyzer plug-in for ImageJ. […]
# HUVEC cells [2] = assay: Wound-healing (scratch) assay; format: cell-based, human; details: HUVEC monolayer pretreated 24 h; 24 h after injury; dose not stated
# Method: HUVEC cells were seeded at a density of 5 × 10^4 cells per well in 24-well plates and set aside for at least 72 h for a uniform monolayer of cells to form. Cells were treated with D-ALG1001 and ALG-1001 for 24 h. A centimeter-long scratch was introduced to the cell monolayer with the tip of a 200 µL pipette tip. Images were taken on a Nikon
# In addition to cell morphological and motility changes measured by tube formation assays, we investigated the activity of D-ALG and ALG-1001 in a wound-healing assay. Previous studies have utilized this method to assess cell migration and proliferation. Monolayers of HUVECs were pretreated with D-ALG or ALG-1001 followed by scratching the monolayer with a pipette tip. Images were taken at the time of the wound and at 24 h after injury. The proliferative activity of endothelial cells can be measured by the area that was healed postinjury to the monolayer. Untreated cells managed to heal up to 80% of the initial damage after 24 h, while cells treated with D-ALG and ALG-1001 healed up to 50% of the initial wound area. […] Because neovascularization is driven in part by the proliferation and migration of endothelial cells in the disease area, reductions in these activities as observed in cells treated with D-ALG can modulate endothelial cell contributions to the neovascularization process.
# [3] = test system: choroidal neovascularization (CNV) area; assay: In vivo attenuation of CNV formation, intraperitoneal dosing, laser CNV model; parameters: species or system Brown Norway rats
# Method: (§1) On the day of CNV induction (Day 0), D-ALG1001 and ALG1001 was administered intraperitoneally at a dose of 150 µg on a peptide basis. Subsequent doses were administered every 4 days. At days 7 and 14, mice were sacrificed and enucleated. Eyes used for CNV image were fixed in 10% formalin for 1 h. Eyes used for qPCR, ELISA, and Western blotting were immediately stored at −80 °C until use.
# (§2) Eyes were mounted by introducing four radial relaxation cuts. […] All images were processed with ImageJ.
# We then evaluated whether the improved protection and targeting of D-ALG allowed for less invasive administration routes. A laser was used to induce CNV at day 0, and the first dose (150 µg peptide basis) of ALG-1001 and D-ALG was administered intraperitoneally. The animals were dosed once every 4 days at 150 µg of peptide basis (7.5 mg/kg). Choroidal flatmounts of eyes at day 7 and 14 were imaged, and the CNV area was calculated using ImageJ.
# [4] = test system: VEGF-A expression in HUVEC; assay: VEGF-A expression by endothelial cells (qPCR); format: cell-based, human; details: HUVEC coincubated with VEGF-A
# [5] = test system: choroidal neovascularization (CNV) area; assay: In vivo attenuation of CNV formation, intravitreal injection, laser CNV model; parameters: species or system Brown Norway rats; details: intravitreal injection after CNV induction; day 7
# Excerpt: as §2
# A Micron III SLO scope and a laser attachment were used to induce CNV formation in mice. The laser CNV model was chosen due to its consistency in creating CNV and the progression of the CNV process. We first evaluated whether dendrimer conjugation impeded the peptide from attenuating CNV by first injecting free ALG-1001 and D-ALG intravitreally after CNV induction. The eyes were then collected on day 7 and the CNV area quantified.
# [6] = test system: phospho-ERK1/2 and phospho-FAK (Y397) in HUVEC cells; assay: Western blot of ERK and FAK pathway activation after VEGF stimulation; format: cell-based, human; details: 100 µM on a peptide basis, 24 h pretreatment, VEGF 5 min; trend
# Method: HUVEC cells were seeded at a density of 5 × 10^4 cells per well in 24-well plates 24 h before treatment. Cells were treated with D-ALG1001 and ALG-1001 for 24 h before activation with VEGF for 5 min. Cells were collected and lysed for Western blotting using T-Per buffer (ThermoFisher) supplemented with PhosStop and proteinase inhibitor cocktail. Cells were lysed with Trizol and processed as previously described for qPCR analysis.
# In brief, the concentration of protein was determined with the BCA protein assay kit (Thermo Scientific, Rockford, IL, USA). Equal amounts of protein were denatured and resolved on 4–15% TGX gels (Bio-Rad, Hercules, CA, USA). Gels were transferred to nitrocellulose membranes, blocked with 3% BSA at RT for 1 h and probed for GAPDH, FAK, pFAK, MAPK, and pMAPK at 4 °C overnight. Membranes were washed thrice before incubation with HRP-conjugated secondary antibodies followed by incubation with chemiluminescent substrate for visualization.
# To elucidate the mechanism through which D-ALG and free ALG-1001 influence angiogenic function, we pretreated the cells with D-ALG and free ALG-1001 for 24 h. The cells were then stimulated with a high dose of exogenous VEGF for 5 min after which the samples were collected for Western blotting. […]
# [7] = test system: FAK, p-FAK (Y397), p44/42 ERK, phospho-p44/42 ERK in choroidal tissue; assay: ELISA of FAK and ERK pathway activation in choroid, laser CNV model; format: in vivo, Brown Norway rats; details: 150 µg peptide basis i.p. every 4 days
# Method: as §1
# In brief, 500 µL of T-Per supplemented with PhosStop and proteinase inhibitor cocktail was added to tubes containing dissected choroid. A scoop of 1.6 mm steel homogenization beads was added to each sample and then placed in TissueLyserLT (Qiagen, Germantown, MD, USA) at an oscillation frequency of 50 cycles/s for 15 min.
# For protein extracted from tissues, total FAK and FAK (Phospho) [pY397] ELISA kits (Invitrogen) were used to quantify the level of protein expression, and the measured protein expression was normalized to the total protein amount of each sample as determined from BCA assays.
# To evaluate the activation of FAK and ERK pathways, eyes were enucleated at set time points, and the choroidal tissue dissected out. Tissues were submerged in a mixture of T-per, proteinase inhibitor, and PhosStop with stainless-steel homogenization beads and homogenized to produce protein extracts. Total FAK, total ERK, p-FAK (Y397), and p-44/42 ERK ELISA kits were used to quantify the amount of total and phosphorylated proteins in FAK and ERK pathways. […] However, the level of total FAK protein in ALG-1001-treated animals was elevated at day 14.
# [8] = test system: VEGF-A, TNFα, IL1β expression in choroid; assay: qPCR of VEGF-A, TNFα and IL1β in choroid, laser CNV model; format: in vivo, Brown Norway rats; details: 150 µg peptide basis i.p. every 4 days, days 7 and 14, trend
# [9] = test system: IL1β and TNFα expression in RAW264.7 cells; assay: In vitro inflammation model, LPS-stimulated macrophages (qPCR); format: cell-based, Murine; details: 24 h pretreatment, LPS 3 h
structure (smiles),measurement,setting,value
C[C@@H](O)[C@H](NC(=O)[C@H](CS(=O)(=O)O)NC(=O)CNC(=O)[C@H](CCCNC(=N)N)NC(=O)CN)C(=O)N1CCC[C@H]1C(=O)O [ALG-1001] (H-GRG[Cya]TP-OH; N-terminus and C-terminus assumed),vessel formation compared to untreated cells,"HUVEC cells [1]; 1 mM, Angiogenesis Analyzer, ImageJ",significantly reduced vessel formation
same,"vessel formation, effect of lower doses",HUVEC cells [1]; doses below 1 mM,not effective
same,initial wound area healed,HUVEC cells [2],up to 50%
same,reduction of CNV area on day 14,"[3]; 150 µg peptide basis (7.5 mg/kg) intraperitoneally every 4 days, choroidal flatmounts, ImageJ",20%
same,CNV area at day 14 (in words),[3]; 150 µg peptide basis intraperitoneally every 4 days,recovered
same,VEGF production compared to the control,[4],did not have statistically significant increases
same,formation of CNV after intravitreal administration,[5],significantly inhibited the formation of CNV
same,"phospho-ERK1/2 expression compared to untreated, VEGF stimulated controls",[6],lower levels
same,"phospho-FAK expression compared to untreated, VEGF stimulated controls",[6],lower levels
same,total ERK,[7]; day 7,remained relatively constant
same,total ERK compared to untreated animals,[7]; day 14,slight trend in the reduction
same,total FAK protein,[7]; day 14,elevated
same,p-FAK protein compared to untreated controls,[7]; days 7 and 14,trend in the reduction
same,IL1β expression,[8],only reduced at day 14
same,TNFα level (relative expression),[8],lower TNFα levels across both time points
same,VEGF-A production (relative expression),[8],lower VEGF-A production at 14 days only
same,impact on IL1β production,[9]; high and low dose,no impact
same,reduction of TNFα expression,[9]; high dose 1 mM,20%
